Source: PubChem BioAssay (NCI)
Where “and” joins values, the source holds several entries; their conditions need not be identical. Identical values can stand only once.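 Where inhibition never reached the appropriate level, the endpoint shown equals the highest concentration tested. Otherwise, values were interpolated linearly from a five-concentration, 48-hour dose response in 96-well plates. GI50 is the concentration that inhibits growth by half. Definition used: TGI = concentration required for complete inhibition of growth.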

Assays:
Experiment in all cases: NCI anticancer screen, dose series, 48 h
[1] = tested on: SW-620 colon
[2] = tested on: T-47D breast
[3] = tested on: DU-145 prostate
[4] = tested on: MCF7 breast
[5] = tested on: NCI-H226 lung
[6] = tested on: OVCAR-8 ovarian
[7] = tested on: SK-MEL-2 melanoma
[8] = tested on: HL-60(TB) leukemia
[9] = tested on: PC-3 prostate
[10] = tested on: SF-295 CNS

SMILES	GI50 [1]	TGI [1]	GI50 [2]	TGI [2]	GI50 [3]	TGI [3]	GI50 [4]	TGI [4]	GI50 [5]	TGI [5]	GI50 [6]	TGI [6]	GI50 [7]	TGI [7]	GI50 [8]	TGI [8]	GI50 [9]	TGI [9]	GI50 [10]	TGI [10]
COc1ccccc1-c1cc2c3c(nc4ccccc42)C(=O)c2cccnc2-c3n1	9.58 µM	27.3 µM	9.08 µM	> 94.6 µM	13.8 µM	28.5 µM	1.44 µM	3.95 µM	15.3 µM	33 µM	8.01 µM	28.6 µM	17.5 µM	47.8 µM	> 100 µM	> 100 µM	14.9 µM	38.2 µM	17.4 µM	50.8 µM
CC1OCC2OC(C)OC(C3C4=C(CC(C)(C)CC4=O)OC4=C3C(=O)CC(C)(C)C4)C2O1 (stereo unspecified)		> 100 µM		> 100 µM		> 100 µM		> 100 µM		> 100 µM		> 100 µM		> 100 µM		> 100 µM		> 100 µM		> 100 µM
Cn1cc(-c2cc3c(Nc4ccc(CC(=O)Nc5cc(C(C)(C)C)on5)cc4)ncnc3[nH]2)cn1	0.871 µM and 0.654 µM	2.75 µM and 5.73 µM	0.315 µM and 0.289 µM	6.12 µM and 2.19 µM	0.83 µM and 0.491 µM	3.84 µM and 2.89 µM	0.352 µM and 0.259 µM	10.3 µM and 4.01 µM	0.899 µM and 0.54 µM	4.18 µM and 4.1 µM	0.893 µM and 0.49 µM	5.06 µM and 4.54 µM	0.835 µM and 0.943 µM	2.8 µM and 3.73 µM	1.98 µM and 1.58 µM	6.63 µM and 5.47 µM	1.59 µM and 0.612 µM	11.3 µM and 3.58 µM	1.64 µM and 1.32 µM	6.21 µM and 6.2 µM
CCC(=O)Sc1ccccc1C(=O)Nc1ccc(Cl)cc1	3.63 µM	25.8 µM	8.96 µM	38.6 µM	22.1 µM	74.3 µM	3.86 µM	36.2 µM	10.4 µM	54.8 µM	17.4 µM	> 100 µM	25.7 µM	> 100 µM	3.65 µM	19.8 µM	10.8 µM	56.3 µM	5.08 µM	25.4 µM
COc1ccc(C(CC(=O)c2ccccc2)C(C(=O)c2ccccc2)C(c2ccc(OC)cc2)C2C(=O)NC(=O)NC2=O)cc1 (stereo unspecified)	26.3 µM	> 100 µM	21.6 µM	> 100 µM	19.2 µM	70.5 µM	18.7 µM	> 100 µM	20 µM	62 µM	24.7 µM	68.7 µM	38.5 µM	> 100 µM	41.2 µM	> 100 µM	7.31 µM	> 100 µM	23.2 µM	> 100 µM
COc1ccc(OC)c(/C=C/[N+](=O)[O-])c1		16.9 µM and 5.39 µM		46.8 µM	2.57 µM	8.37 µM and 10.5 µM		8.64 µM	1.93 µM and 4.06 µM	4.41 µM and 10.2 µM	3.31 µM	17.3 µM and 15.2 µM		5.48 µM and 9.88 µM	1.66 µM and 0.651 µM	4.5 µM and 2.79 µM	2.53 µM and 12.4 µM	7.37 µM and 27.9 µM	3.09 µM	9.46 µM and 11.4 µM
COC1/C=C/O[C@@]2(C)Oc3c(C)c(O)c4c(O)c(cc(O)c4c3C2=O)NC(=O)/C(C)=C\C=C\[C@H](C)C(O)[C@@H](C)[C@@H](O)[C@@H](C)[C@H](OC(C)=O)[C@@H]1C (stereo partly specified)	2.72 µM and 7.91 µM	13.6 µM and 21.9 µM	8.63 µM	23.2 µM and 48.5 µM	12.3 µM	26.8 µM and 54.5 µM	17.3 µM	32.3 µM and 29.7 µM	39.6 µM and 59.3 µM	179 µM	14.9 µM	29.8 µM and 57.4 µM		30 µM and 45.2 µM	6.07 µM and 5.19 µM	27.4 µM and 18 µM	7.74 µM	20.4 µM and 34 µM		196 µM
CCCC[C@@H]1NC(=O)[C@H](CCCCN)NC(=O)[C@H](CCCNC(=N)N)NC(=O)[C@H](CC(C)C)NC(=O)[C@@H](NC(=O)[C@H](Cc2cccc(Cl)c2)NC(=O)[C@@H]2CCCN2C(=O)[C@@H](NC(C)=O)C(C)C)CCSSC[C@@H](C(=O)N[C@@H](CCCCN)C(=O)N2CCC[C@H]2C(=O)N2CCC[C@H]2C(=O)N[C@@H](CCC(=O)O)C(N)=O)NC(=O)[C@H](Cc2ccccc2)NC(=O)[C@H](CO)NC(=O)[C@H](C)NC(=O)[C@@H]2CCCN2C1=O	> 50 µM	> 50 µM	> 50 µM	> 50 µM	> 50 µM	> 50 µM	> 50 µM	> 50 µM	> 50 µM	> 50 µM	> 50 µM	> 50 µM	> 50 µM	> 50 µM	> 50 µM	> 50 µM	> 50 µM	> 50 µM	> 50 µM	> 50 µM
COc1ccc(-c2cc3cccc(OC)c3c(=O)o2)cc1OC	40 µM	> 100 µM	28.3 µM	> 100 µM	0.795 µM	> 100 µM	32 µM	> 100 µM	2.35 µM	86.5 µM	> 100 µM	> 100 µM	> 100 µM	> 100 µM	76.2 µM	> 100 µM	55.9 µM	> 100 µM	33.8 µM	> 100 µM
O=C(Cn1ccnc1[N+](=O)[O-])N(CCO)CCO	> 1250 µM	> 1250 µM		> 250 µM		> 250 µM	> 250 µM	> 1250 µM	> 1250 µM	> 1250 µM	> 1250 µM	> 1250 µM	> 1250 µM	250 µM and > 1250 µM	> 1250 µM	> 1250 µM		> 250 µM	> 185 µM	> 753 µM
CCOc1ccc(NC(=O)Nc2cc(C(C)C)ccc2C)cc1	11.2 µM	> 100 µM	8.94 µM	> 100 µM	9.57 µM	> 58.4 µM	11.8 µM	> 57.8 µM	10.2 µM	50.1 µM	3.67 µM	14.8 µM	18 µM	55.6 µM	> 57.9 µM	> 100 µM	11.4 µM	> 58 µM	7.45 µM	25.4 µM
